Laboratory results taken from ChEMBL document CHEMBL5329205, “Development of novel quinoline-NO donor hybrids inducing human breast cancer cells apoptosis via inhibition of topoisomerase I” (Bioorg Med Chem, 2023).
Active and inactive are the calls of the source. The rule behind the calls is not given here.

How the values were obtained:
A549 = test: Antiproliferative activity against human A549 cells assessed as inhibition of cell growth incubated for 48 hrs by MTT assay; assay type: functional, cell-based; conditions: A549, 48 h
MCF7 [1] = test: Antiproliferative activity against human MCF7 cells assessed as inhibition of cell growth incubated for 48 hrs by MTT assay; assay type: functional, cell-based; conditions: MCF7, 48 h
MCF7 [2] = test: Antiproliferative activity against human MCF7 cells assessed as NO release at 4 uM preincubated with PTIO for 2 hrs followed by compound addition and measured after 24 hrs by total nitric oxide assay; assay type: functional, cell-based
MCF7 [3] = test: Induction of apoptosis in human MCF7 cells assessed as upregulation of Bax expression incubated for 24 hrs by Western blot analysis; assay type: functional, cell-based; conditions: dose 1-4 µM
MCF7 [4] = test: Induction of apoptosis in human MCF7 cells assessed as upregulation of Bad expression incubated for 24 hrs by Western blot analysis; assay type: functional, cell-based; conditions: dose 1-4 µM
MCF7 [5] = test: Induction of apoptosis in human MCF7 cells assessed as downregulation of Bcl-2 expression incubated for 24 hrs by Western blot analysis; assay type: functional, cell-based; conditions: dose 1-4 µM
MCF7 [6] = test: Induction of ROS generation in human MCF7 cells at 0.1 uM incubated for 24 hrs by DCFH-DA staining based fluorescent microscopic analysis; assay type: functional, cell-based
MCF7 [7] = test: Induction of apoptosis in human MCF7 cells assessed as total apoptotic cells at 0.75 to 3 uM incubated for 48 hrs by Annexin-V/PI staining based flow cytometry analysis (reference value: 0.3 %); assay type: functional; conditions: dose 0.75-3 µM
MCF7 [8] = test: Induction of apoptosis in human MCF7 cells assessed as late apoptotic cells at 3 uM incubated for 48 hrs by Annexin-V/PI FITC staining based flow cytometry analysis (reference value: 0.0%); assay type: functional
MCF7 [9] = test: Induction of cell cycle arrest in human MCF7 cells assessed as G1 phase cells at 1.5 uM incubated for 24 hrs by PI/RNaseA staining based flow cytometry analysis (reference value: 66.08 %); assay type: functional
MCF7 [10] = test: Induction of cell cycle arrest in human MCF7 cells assessed as S phase cells at 3 uM incubated for 24 hrs by PI/RNaseA staining based flow cytometry analysis (reference value: 22.2 %); assay type: functional
MCF7 [11] = test: Induction of cell cycle arrest in human MCF7 cells assessed as G2 phase cells at 0.75 uM incubated for 24 hrs by PI/RNaseA staining based flow cytometry analysis (reference value: 7.67 %); assay type: functional
MCF7 [12] = test: Induction of cell cycle arrest in human MCF7 cells assessed as G2 phase cells at 3 uM incubated for 24 hrs by PI/RNaseA staining based flow cytometry analysis (reference value: 7.67 %); assay type: functional
[13] = target: ATP-dependent translocase ABCB1 (Homo sapiens, UniProt P08183); test: Inhibition of P-glycoprotein mediated Rhodamine-123 transport in human MCF7ADR cells assessed as increase in fluorescence index of rhodamine-123 at 1.5 to 3 uM incubated for 24 hrs by flow cytometry analysis; assay type: cell-based; conditions: dose 1.5-3 µM
[14] = Toxicity in BALB/c nude mouse xenografted with human MCF7 cells assessed as heart damage at 5 mg/kg, ip administered once every two days for 3 weeks by H and E staining based microscopic analysis; assay type: organism-based; conditions: in vivo, 504 h
[15] = Toxicity in BALB/c mouse xenografted with human MCF7 cells assessed as lung damage at 5 mg/kg, ip administered once every two days for 3 weeks by H and E staining based microscopic analysis; assay type: organism-based; conditions: in vivo, 504 h
[16] = Toxicity in BALB/c mouse xenografted with human MCF7 cells assessed as kidney damage at 5 mg/kg, ip administered once every two days for 3 weeks by H and E staining based microscopic analysis; assay type: organism-based; conditions: in vivo, 504 h
[17] = Toxicity in BALB/c mouse xenografted with human MCF7 cells assessed as heart damage at 10 mg/kg, ip administered once every two days for 3 weeks by H and E staining based microscopic analysis; assay type: organism-based; conditions: in vivo, 504 h
MCF7 [18] = test: Induction of apoptosis in human MCF7 cells assessed as nucleus fragmentation upto 3 uM incubated for 48 hrs by Hoechst-33342 staining based fluorescent microscopic analysis; assay type: functional, cell-based
MCF7 [19] = test: Induction of apoptosis in human MCF7 cells assessed as boundary consolidation upto 3 uM incubated for 48 hrs by Hoechst-33342 staining based fluorescent microscopic analysis; assay type: functional, cell-based
MCF7 [20] = test: Induction of apoptosis in human MCF7 cells assessed as early apoptotic cells at 0.75 uM incubated for 48 hrs by Annexin-V/PI staining based flow cytometry analysis (reference value: 0.3%); assay type: functional
MCF7 [21] = test: Induction of apoptosis in human MCF7 cells assessed as necrotic cells at 0.75 uM incubated for 48 hrs by Annexin-V/PI staining based flow cytometry analysis (reference value: 0.0%); assay type: functional
MCF7 [22] = test: Induction of apoptosis in human MCF7 cells assessed as viable cells at 1.5 uM incubated for 48 hrs by Annexin-V/PI staining based flow cytometry analysis (reference value: 99.7%); assay type: functional; conditions: read-out: Activity
MCF7 [23] = test: Induction of apoptosis in human MCF7 cells assessed as necrotic cells at 1.5 uM incubated for 48 hrs by Annexin-V/PI staining based flow cytometry analysis (reference value: 0.0%); assay type: functional

Chain of ATP-dependent translocase ABCB1 (P08183 whole entry): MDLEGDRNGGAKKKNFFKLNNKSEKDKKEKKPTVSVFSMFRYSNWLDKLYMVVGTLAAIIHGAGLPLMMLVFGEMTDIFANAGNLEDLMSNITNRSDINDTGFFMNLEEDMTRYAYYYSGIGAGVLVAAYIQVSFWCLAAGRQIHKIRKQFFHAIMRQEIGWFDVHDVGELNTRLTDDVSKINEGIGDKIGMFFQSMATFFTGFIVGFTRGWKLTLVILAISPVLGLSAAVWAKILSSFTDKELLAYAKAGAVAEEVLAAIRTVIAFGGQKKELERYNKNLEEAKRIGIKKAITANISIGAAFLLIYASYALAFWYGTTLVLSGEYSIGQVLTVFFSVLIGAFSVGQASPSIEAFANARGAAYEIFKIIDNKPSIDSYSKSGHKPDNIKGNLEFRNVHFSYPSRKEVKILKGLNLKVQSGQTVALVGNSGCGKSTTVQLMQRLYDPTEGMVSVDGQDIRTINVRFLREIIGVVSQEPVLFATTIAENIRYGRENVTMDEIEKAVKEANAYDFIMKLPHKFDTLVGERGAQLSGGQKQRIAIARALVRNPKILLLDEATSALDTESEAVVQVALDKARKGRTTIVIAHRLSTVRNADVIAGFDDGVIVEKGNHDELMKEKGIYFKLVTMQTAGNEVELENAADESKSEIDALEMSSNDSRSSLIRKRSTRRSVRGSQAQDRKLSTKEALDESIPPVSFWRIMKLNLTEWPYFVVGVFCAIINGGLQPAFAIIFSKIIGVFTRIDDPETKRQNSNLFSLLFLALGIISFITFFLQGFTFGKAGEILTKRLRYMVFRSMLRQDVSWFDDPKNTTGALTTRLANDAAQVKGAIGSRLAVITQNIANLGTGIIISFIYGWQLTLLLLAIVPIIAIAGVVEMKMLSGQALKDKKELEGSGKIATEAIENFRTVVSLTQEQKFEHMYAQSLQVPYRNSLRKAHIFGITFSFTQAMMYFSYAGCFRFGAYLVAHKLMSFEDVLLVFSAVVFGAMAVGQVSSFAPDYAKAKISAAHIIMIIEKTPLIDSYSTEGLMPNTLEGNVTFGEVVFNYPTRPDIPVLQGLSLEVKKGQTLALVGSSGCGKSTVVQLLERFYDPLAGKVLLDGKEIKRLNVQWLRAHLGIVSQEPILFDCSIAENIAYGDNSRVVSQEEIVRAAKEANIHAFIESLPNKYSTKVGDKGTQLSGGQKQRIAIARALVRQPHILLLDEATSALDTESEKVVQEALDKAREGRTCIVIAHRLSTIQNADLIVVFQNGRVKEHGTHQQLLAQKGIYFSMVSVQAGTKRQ

For COc1cc(-c2cc(C(=O)OCCCCCOc3no[n+]([O-])c3S(=O)(=O)c3ccccc3)c3ccccc3n2)cc(OC)c1OC, the IC50 (A549) was 2130 nM, the IC50 (MCF7 [1]) was 1450 nM and the Activity (MCF7 [2]) was “inactive”. For the same compound, the Activity (MCF7 [3]) was “Dose-Dependent Effect”, the Activity (MCF7 [4]) was “Dose-Dependent Effect” and the Activity (MCF7 [5]) was “Dose-Dependent Effect”. For the same compound, the Activity (MCF7 [6]) was “Active”, the Activity (MCF7 [7]) was 64.3% and the Activity (MCF7 [8]) was 50%. For the same compound, the Activity (MCF7 [9]) was 61.5%, the Activity (MCF7 [10]) was 17.82% and the Activity (MCF7 [11]) was 10.62%. The Activity (MCF7 [12]) was 23.52%, the “inhibition (INH)” value [13] was “Active” and the Activity [14] was “Non-Toxic”. The Activity [15] was “Non-Toxic”, the Activity [16] was “Non-Toxic” and the Activity [17] was “Non-Toxic”. The Activity (MCF7 [18]) was “Active”, the Activity (MCF7 [19]) was “Active” and the Activity (MCF7 [20]) was 11.9%. For the same compound, the Activity (MCF7 [21]) was 3%, the viability at 1.5 µM (MCF7 [22]) was 65.4% and the Activity (MCF7 [23]) was 3.3%.
